Measurements published in patent US8071768B2, “Alkylquinoline and alkylquinazoline kinase modulators” (Janssen Pharmaceutica, N.V., priority 2005, dated 2011).

What follows are molecules tested against T1, TrkB (Homo sapiens, UniProt Q16620) (assay: Trk B Fluorescence Polarization Kinase Assay). Conditions: uncertainty ±10%.
T1 construct: purchased Upstate 14-507M
T1 sequence (Q16620 32-822): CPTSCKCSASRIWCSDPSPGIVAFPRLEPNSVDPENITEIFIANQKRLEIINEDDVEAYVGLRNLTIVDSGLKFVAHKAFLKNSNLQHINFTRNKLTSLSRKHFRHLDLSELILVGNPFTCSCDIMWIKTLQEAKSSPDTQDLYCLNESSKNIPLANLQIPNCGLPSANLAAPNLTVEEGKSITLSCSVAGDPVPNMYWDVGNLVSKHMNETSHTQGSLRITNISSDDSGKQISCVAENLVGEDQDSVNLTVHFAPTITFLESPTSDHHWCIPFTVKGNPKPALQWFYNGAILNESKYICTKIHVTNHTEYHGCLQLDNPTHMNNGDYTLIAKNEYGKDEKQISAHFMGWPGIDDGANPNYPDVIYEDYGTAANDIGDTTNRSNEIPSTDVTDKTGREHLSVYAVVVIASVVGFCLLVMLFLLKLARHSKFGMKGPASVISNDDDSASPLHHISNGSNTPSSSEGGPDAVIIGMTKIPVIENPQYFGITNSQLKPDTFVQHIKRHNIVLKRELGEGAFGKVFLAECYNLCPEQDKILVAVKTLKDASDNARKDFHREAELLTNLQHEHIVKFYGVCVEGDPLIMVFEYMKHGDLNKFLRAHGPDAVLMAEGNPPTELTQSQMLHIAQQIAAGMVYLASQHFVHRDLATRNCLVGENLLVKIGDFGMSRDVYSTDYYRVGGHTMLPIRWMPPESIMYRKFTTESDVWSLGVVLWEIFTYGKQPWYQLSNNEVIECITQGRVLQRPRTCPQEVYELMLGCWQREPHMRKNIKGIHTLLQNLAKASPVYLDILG
Format: biochemical
Experimental: Trk B Fluorescence Polarization Kinase Assay (TrkB IC50 Data)
The compounds of the present invention are also specific inhibitors of TrkB. Selection of preferred compounds of Formula I for use as TrkB inhibitors was performed in the following manner. The TrkB assay utilized the fluorescein-labeled phosphopeptide and the anti-phosphotyrosine antibody included in the Panvera Phospho-Tyrosine Kinase Kit (Green) supplied by Invitrogen. When TrkB phosphorylated poly Glu4Tyr, the fluorescein-labeled phosphopeptide was displaced from the anti-phosphotyrosine antibody by the phosphorylated poly Glu4Tyr, thus decreasing the FP value. The TrkB kinase reaction was incubated at room temperature for 30 minutes under the following conditions: 50 nM TrkB (Upstate, catalog # 14-507M), 20 ug/mL poly Glu4Tyr, 150 uM ATP, 5 mM MgCl2, 1% compound in DMSO. The kinase reaction was stopped with the addition of EDTA. The fluorescein-labeled phosphopeptide and the anti-phosphotyrosine antibody were added and incubated for 30 minutes at room temperature. Data points were an average of triplicate samples. Inhibition and IC50 data analysis were done with GraphPad Prism using a non-linear regression fit with a multiparamater, sigmoidal dose-response (variable slope) equation.
`COc1cc2ncnc(C3CCN(C(=O)Nc4ccc(I)cc4)CC3)c2cc1OC` [Compound 2, 4-(6,7-Dimethoxy-quinazolin-4-yl)-piperidine-1-carboxylic acid (4-iodo-phenyl)-amide] showed an IC50 of 6200 nM.
`COc1cc2ncnc(C3CCN(C(=O)Nc4ccc(-n5ccnc5)cc4)CC3)c2cc1OC` [Compound 3, 4-(6,7-Dimethoxy-quinazolin-4-yl)-piperidine-1-carboxylic acid (4-imidazol-1-yl-phenyl)-amide] was tested, and the IC50 was > 42000 nM.
For `CC(C)c1ccc(NC(=O)N2CCC(c3ccnc4ccccc34)CC2)cc1` [Compound 5, 4-Quinolin-4-yl-piperidine-1-carboxylic acid (4-isopropyl-phenyl)-amide], the IC50 was 700 nM.
`CC(C)Oc1ccc(NC(=O)N2CCC(c3ccnc4ccccc34)CC2)cc1` [Compound 6, 4-Quinolin-4-yl-piperidine-1-carboxylic acid (4-isopropoxy-phenyl)-amide] gave an IC50 of 800 nM.
`CC(C)c1ccc(NC(=O)N2CCC(c3ncnc4ccccc34)CC2)cc1` [Compound 7, 4-Quinazolin-4-yl-piperidine-1-carboxylic acid (4-isopropyl-phenyl)-amide] showed an IC50 of 3300 nM.
Molecule `CC(C)Oc1ccc(NC(=O)N2CCC(c3ncnc4ccccc34)CC2)cc1` [Compound 8, 4-Quinazolin-4-yl-piperidine-1-carboxylic acid (4-isopropoxy-phenyl)-amide] has an IC50 of 2400 nM.
`COc1cc2ncnc(C3CCN(CC(=O)Nc4ccc(C(C)C)cc4)CC3)c2cc1OC` [Compound 9, 2-[4-(6,7-Dimethoxy-quinazolin-4-yl)-piperidin-1-yl]-N-(4-isopropyl-phenyl)-acetamide] was tested, and the IC50 was 500 nM.
Molecule `COc1cc2ncnc(C3CCN(CC(=O)Nc4ccc(OC(C)C)cc4)CC3)c2cc1OC` [Compound 10, 2-[4-(6,7-Dimethoxy-quinazolin-4-yl)-piperidin-1-yl]-N-(4-isopropoxy-phenyl)-acetamide] has an IC50 of 1000 nM.
Work on `CC(C)Oc1ccc(NC(=O)N2CCC(c3ncnc4ccc(I)cc34)CC2)cc1` [Compound 11, 4-(6-Iodo-quinazolin-4-yl)-piperidine-1-carboxylic acid (4-isopropoxy-phenyl)-amide] yielded an IC50 of 200 nM.
`CC(C)Oc1ccc(NC(=O)N2CCC(c3ncnc4ccc(C#CCO)cc34)CC2)cc1` [Compound 12, 4-[6-(3-Hydroxy-prop-1-ynyl)-quinazolin-4-yl]-piperidine-1-carboxylic acid (4-isopropoxy-phenyl)-amide] was tested, and the IC50 was 500 nM.
`CCN(CC)CC#Cc1ccc2ncnc(C3CCN(C(=O)Nc4ccc(OC(C)C)cc4)CC3)c2c1` [Compound 13, 4-[6-(3-Diethylamino-prop-1-ynyl)-quinazolin-4-yl]-piperidine-1-carboxylic acid (4-isopropoxy-phenyl)-amide] gave an IC50 of 1300 nM.
In the case of `CC(C)Oc1ccc(NC(=O)N2CCC(c3ncnc4ccc(C#CCN5CCCCC5)cc34)CC2)cc1` [Compound 14, 4-[6-(3-Piperidin-1-yl-prop-1-ynyl)-quinazolin-4-yl]-piperidine-1-carboxylic acid (4-isopropoxy-phenyl)-amide], the IC50 is reported as 300 nM.
`CC(C)Oc1ccc(NC(=O)N2CCC(c3ncnc4ccc(C#CCN5CCOCC5)cc34)CC2)cc1` [Compound 15, 4-[6-(3-Morpholin-4-yl-prop-1-ynyl)-quinazolin-4-yl]-piperidine-1-carboxylic acid (4-isopropoxy-phenyl)-amide] was tested, and the IC50 was 800 nM.
`CC(C)c1ccc(NC(=O)CN2CCC(c3ncnc4ccccc34)CC2)cc1` [Compound 16, N-(4-Isopropyl-phenyl)-2-(4-quinazolin-4-yl-piperidin-1-yl)-acetamide] showed an IC50 of 2600 nM.
`COc1cc2ncnc(C3CCN(C(=O)Nc4ccc(N5CCCCC5)cc4)CC3)c2cc1OC` [Compound 19, 4-(6,7-Dimethoxy-quinazolin-4-yl)-piperidine-1-carboxylic acid (4-piperidin-1-yl-phenyl)-amide] showed an IC50 of 2700 nM.
For `COc1cc2ncnc(C3CCN(C(=O)Nc4ccc(C5CCCCC5)cc4)CC3)c2cc1OC` [Compound 21, 4-(6,7-Dimethoxy-quinazolin-4-yl)-piperidine-1-carboxylic acid (4-cyclohexyl-phenyl)-amide], the IC50 was 600 nM.
Molecule `COc1cc2ncnc(C3CCN(C(=O)Nc4ccc(CO)cc4)CC3)c2cc1OC` [Compound 22, 4-(6,7-Dimethoxy-quinazolin-4-yl)-piperidine-1-carboxylic acid (4-hydroxymethyl-phenyl)-amide] has an IC50 of 17700 nM.
`COc1cc2ncnc(C3CCN(C(=O)Nc4ccc5[nH]ccc5c4)CC3)c2cc1OC` [Compound 23, 4-(6,7-Dimethoxy-quinazolin-4-yl)-piperidine-1-carboxylic acid (1H-indol-5-yl)-amide] gave an IC50 of 13300 nM.
`COc1cc2ncnc(C3CCN(C(=O)Nc4ccc5ncsc5c4)CC3)c2cc1OC` [Compound 24, 4-(6,7-Dimethoxy-quinazolin-4-yl)-piperidine-1-carboxylic acid benzothiazol-6-ylamide] gave an IC50 of 35000 nM.
With `COc1cc2ncnc(C3CCN(C(=O)Nc4ccc(NC(C)=O)cc4)CC3)c2cc1OC` [Compound 25, 4-(6,7-Dimethoxy-quinazolin-4-yl)-piperidine-1-carboxylic acid (4-acetylamino-phenyl)-amide] the IC50 was > 42000 nM.
`COc1cc2ncnc(C3CCN(C(=O)Nc4ccc(N(C)C)cc4)CC3)c2cc1OC` [Compound 26, 4-(6,7-Dimethoxy-quinazolin-4-yl)-piperidine-1-carboxylic acid (4-dimethylamino-phenyl)-amide] was tested, and the IC50 was 9400 nM.
`COc1cc2ncnc(C3CCN(C(=O)Nc4ccc5c(c4)CCO5)CC3)c2cc1OC` [Compound 27, 4-(6,7-Dimethoxy-quinazolin-4-yl)-piperidine-1-carboxylic acid (2,3-dihydro-benzofuran-5-yl)-amide] showed an IC50 of 9400 nM.
`COc1cc2ncnc(C3CCN(C(=O)Cc4ccc(C(C)C)cc4)CC3)c2cc1OC` [Compound 28, 1-[4-(6,7-Dimethoxy-quinazolin-4-yl)-piperidin-1-yl]-2-(4-isopropyl-phenyl)-ethanone] showed an IC50 of 100 nM.
For `CC(C)Oc1ccc(NC(=O)N2CCC(c3ncnc4cc(Cl)ccc34)CC2)cc1` [Compound 29, 4-(7-Chloro-quinazolin-4-yl)-piperidine-1-carboxylic acid (4-isopropoxy-phenyl)-amide], the IC50 was 500 nM.
With `CC(C)c1ccc(NC(=O)N2CCC(c3ncnc4cc(Cl)ccc34)CC2)cc1` [Compound 30, 4-(7-Chloro-quinazolin-4-yl)-piperidine-1-carboxylic acid (4-isopropyl-phenyl)-amide] the IC50 was 700 nM.
Molecule `COc1ccc2c(C3CCN(C(=O)Nc4ccc(OC(C)C)cc4)CC3)ncnc2c1` [Compound 31, 4-(7-Methoxy-quinazolin-4-yl)-piperidine-1-carboxylic acid (4-isopropoxy-phenyl)-amide] has an IC50 of 400 nM.
With `COc1ccc2c(C3CCN(C(=O)Nc4ccc(C(C)C)cc4)CC3)ncnc2c1` [Compound 32, 4-(7-Methoxy-quinazolin-4-yl)-piperidine-1-carboxylic acid (4-isopropyl-phenyl)-amide] the IC50 was 500 nM.
In the case of `CC(C)Oc1ccc(NC(=O)N2CCC(c3ncnc4cc(OCCCN5CCCCC5)ccc34)CC2)cc1` [Compound 33, 4-(7-(3-Piperidin-1-yl-propoxy)-quinazolin-4-yl)-piperidine-1-carboxylic acid (4-isopropoxy-phenyl)-amide], the IC50 is reported as 900 nM.
With `CC(C)Oc1ccc(NC(=O)N2CCC(c3ncnc4cc(OCCN5CCCCC5)ccc34)CC2)cc1` [Compound 34, 4-(7-(2-Piperindin-1-yl-ethoxy)-quinazolin-4-yl)-piperidine-1-carboxylic acid (4-isopropoxy-phenyl)-amide] the IC50 was 2800 nM.
In the case of `CCN(CC)CCOc1ccc2c(C3CCN(C(=O)Nc4ccc(OC(C)C)cc4)CC3)ncnc2c1` [Compound 35, 4-[7-(2-Diethylamino-ethoxy)-quinazolin-4-yl)-piperidine-1-carboxylic acid (4-isopropoxy-phenyl)-amide], the IC50 is reported as 1500 nM.
In the case of `CCN(CC)CCCOc1ccc2c(C3CCN(C(=O)Nc4ccc(OC(C)C)cc4)CC3)ncnc2c1` [Compound 36, 4-[7-(3-Diethylamino-propoxy)-quinazolin-4-yl)-piperidine-1-carboxylic acid (4-isopropoxy-phenyl)-amide], the IC50 is reported as 600 nM.
`CC(C)Oc1ccc(NC(=O)N2CCC(c3ncnc4cc(OCCN5CCOCC5)ccc34)CC2)cc1` [Compound 37] was tested, and the IC50 was 700 nM.
`CC(C)Oc1ccc(NC(=O)N2CCC(c3ncnc4cc(OCCCN5CCOCC5)ccc34)CC2)cc1` [Compound 38] was tested, and the IC50 was 100 nM.
`COCCOc1ccc(NC(=O)N2CCC(c3ncnc4cc(OC)c(OC)cc34)CC2)cc1` [Compound 40, 4-(6,7-Dimethoxy-quinazolin-4-yl)-piperidine-1-carboxylic acid [4-(2-methoxy-ethoxy)-phenyl]-amide] was tested, and the IC50 was > 42000 nM.
`COc1ccc(NC(=O)N2CCC(c3ncnc4cc(OC)c(OC)cc34)CC2)cc1` [Compound 41, 4-(6,7-Dimethoxy-quinazolin-4-yl)-piperidine-1-carboxylic acid (4-methoxy-phenyl)-amide] was tested, and the IC50 was 11700 nM.
For `COc1cc2ncnc(C3CCN(C(=O)NC4CCCCC4)CC3)c2cc1OC` [Compound 42, 4-(6,7-Dimethoxy-quinazolin-4-yl)-piperidine-1-carboxylic acid cyclohexylamide], the IC50 was 28700 nM.
`CCCCc1ccc(NC(=O)N2CCC(c3ncnc4cc(OC)c(OC)cc34)CC2)cc1` [Compound 43, 4-(6,7-Dimethoxy-quinazolin-4-yl)-piperidine-1-carboxylic acid (4-butyl-phenyl)-amide] showed an IC50 of 800 nM.
